Experimental data taken from the NIST ThermoML archive (doi:10.1021/je700647x).

What was measured:
[1] = xn = mol fraction of the nth substance listed; conditions: Ring tensiometer
[2] = Ring tensiometer

CCO [ethanol] + CN(CCO)CCO
Conditions | surface tension liquid-gas [mN/m]
[1], 298.15 K, x2 = 0 | 21.85

OCCN(CCO)CCO [triethanolamine]
[2]
Conditions | surface tension liquid-gas [mN/m]
288.15 K | 47.64
293.15 K | 46.77
298.15 K | 45.88
303.15 K | 45.16
308.15 K | 44.42
313.15 K | 43.4

OCCN(CCO)CCO [triethanolamine] + CCO
surface tension liquid-gas [mN/m], [1]
Conditions | x1 = 0.0795 | x1 = 0.1461 | x1 = 0.2209 | x1 = 0.3266 | x1 = 0.4581 | x1 = 0.6263 | x1 = 0.7725 | x1 = 0.8489 | x1 = 0.9304 | x1 = 1
288.15 K | 24.1 | 25.4 | 27.12 | 29.68 | 33.17 | 37.65 | 41.56 | 43.57 | 45.78 | 47.64
293.15 K | 23.69 | 25.02 | 26.77 | 29.34 | 32.72 | 37.11 | 40.89 | 42.86 | 44.96 | 46.77
298.15 K | 23.32 | 24.7 | 26.42 | 28.97 | 32.29 | 36.57 | 40.24 | 42.16 | 44.22 | 45.88
303.15 K | 23.02 | 24.41 | 26.11 | 28.61 | 31.87 | 36.02 | 39.61 | 41.47 | 43.47 | 45.16
308.15 K | 22.71 | 24.12 | 25.78 | 28.21 | 31.42 | 35.48 | 39 | 40.83 | 42.77 | 44.42
313.15 K | 22.35 | 23.81 | 25.46 | 27.79 | 30.89 | 34.82 | 38.21 | 39.97 | 41.84 | 43.4

CCO [ethanol]
Conditions | surface tension liquid-gas [mN/m]
[2], 298.15 K | 21.85

CCO [ethanol] + OCCN(CCO)CCO
Conditions | surface tension liquid-gas [mN/m]
[1], 298.15 K, x2 = 0 | 21.85
